Data published in patent US7557213B2, “Substituted quinolones and methods of use” (ChemoCentryx, Inc., priority 2005, dated 2009).

Molecular target: T1, CCXCKR2 receptor (Homo sapiens, UniProt P25106)
T1 construct: expressed in transfected cells; host or cells: MDA-MB-435S transfected with pcDNA3.1(+)-hRDC1 and/or MCF-7 (endogenous receptor)
Test: Displacement of 125I-labeled SDF-1 from the CCXCKR2 receptor on MCF-7 and/or CCXCKR2-transfected MDA-MB-435S cells (radioligand binding, filtration)
Conditions: not given

T1 sequence (P25106 whole entry): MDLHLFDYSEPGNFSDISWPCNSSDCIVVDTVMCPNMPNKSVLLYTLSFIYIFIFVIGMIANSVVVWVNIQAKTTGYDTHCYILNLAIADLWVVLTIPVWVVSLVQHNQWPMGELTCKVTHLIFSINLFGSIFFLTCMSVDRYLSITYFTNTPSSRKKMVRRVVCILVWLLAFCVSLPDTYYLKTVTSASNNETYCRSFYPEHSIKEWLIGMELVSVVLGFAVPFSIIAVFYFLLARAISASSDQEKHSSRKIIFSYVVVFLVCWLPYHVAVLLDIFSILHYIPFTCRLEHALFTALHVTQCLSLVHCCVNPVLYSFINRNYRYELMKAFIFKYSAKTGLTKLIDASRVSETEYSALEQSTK

Row | SMILES | IC50 [nM]
1 | Cc1cccc(Cn2cc(C(=O)c3cccc(C)c3)c(=O)c3ccccc32)c1 [Example 20] | < 100

Same assay, conditions: 125I SDF-1, 3 hr at 4° C., MCF-7 and/or MDA-MB-435S cells; read-out: Activity (concentration displacing at least 50% of the SDF-1 from the CCXCKR2 receptor)

Row | IC50 [nM] | SMILES
2 | < 100 | Cc1ccc2c(n1)c(=O)c(C(=O)c1ccc(C)c(C)c1)cn2Cc1cccc(Br)n1 [Example 119]
3 | 500 to 20000 | Cc1ccc(C(=O)c2cn(Cc3ccccc3F)c3cc4c(cc3c2=O)OC(F)(F)O4)cc1C [Example 19]
4 | < 100 | O=C(c1ccc(Cl)c(F)c1)c1cn(Cc2cccc(Br)n2)c2ccccc2c1=O [Example 179]
5 | < 100 | Cc1cc(C(=O)c2cn(Cc3cccc(N)n3)c3ccccc3c2=O)cnc1C [Example 91]
6 | < 100 | Cc1cnc(C(=O)c2cn(Cc3cccc(Br)n3)c3ccccc3c2=O)cc1C [Example 94]
7 | < 100 | COc1cc(C(=O)c2cn(Cc3cccc(Br)n3)c3ncccc3c2=O)ccc1Cl [Example 172]
8 | < 100 | Cc1ccc(C(=O)c2cn(Cc3cccc(Br)c3)c3ccccc3c2=O)cn1 [Example 227]
9 | 500 to 20000 | Cc1ccc(C(=O)c2cn(-c3ccccc3)c3ccccc3c2=O)cc1C [Example 38]
10 | < 100 | O=C(c1ccc(Cl)cc1)c1cn(Cc2cccc(Br)n2)c2ccccc2c1=O [Example 200]
11 | 100 to 500 | COc1ccc(C(=O)c2cn(Cc3cccc(Br)c3)c3ccccc3c2=O)cn1 [Example 239]
12 | < 100 | Cc1ccc(C(=O)c2cn(C(C)c3cccc(Br)n3)c3ccccc3c2=O)cc1C (stereo not drawn) [Example 75]
13 | < 100 | CC(C)(C)c1ccc(C(=O)c2cn(Cc3cccc(Br)n3)c3ccccc3c2=O)cc1 [Example 114]
14 | 500 to 20000 | O=C(c1ccc(O)nc1)c1cn(Cc2cccc(Br)n2)c2ccccc2c1=O [Example 210]
15 | < 100 | CCN(CC)c1ccc(C(=O)c2cn(Cc3cccc(Br)c3)c3ccccc3c2=O)cn1 [Example 235]
16 | 500 to 20000 | O=C(c1ccncc1)c1cn(Cc2ccccc2F)c2ccccc2c1=O [Example 15]
17 | < 100 | Cc1ccc(C(=O)c2cn(Cc3cccc(NC(=O)C(F)(F)F)n3)c3ccccc3c2=O)cc1C [Example 87]
18 | 100 to 500 | Cc1cccc(Cn2cc(C(=O)c3ccc(N(C)C)nc3)c(=O)c3ccccc32)n1 [Example 214]
19 | 500 to 20000 | Cc1ccc(C(=O)c2cn(Cc3cccc(N(C)C)n3)c3ccccc3c2=O)cc1C [Example 92]
20 | 100 to 500 | Cc1ccc(C(=O)c2cn(Cc3cccc(-c4ncco4)n3)c3ccccc3c2=O)cc1C [Example 41]
21 | < 100 | COc1cccc(C(=O)c2cn(Cc3cccc(Br)n3)c3ccccc3c2=O)c1 [Example 141]
22 | 500 to 20000 | Cc1cccc(Cn2cc(C(=O)c3ccc(C)c(C)c3)c(=O)c3cc4c(cc32)OCCO4)c1 [Example 5]
23 | < 100 | CC(C)c1ccc(C(=O)c2cn(Cc3cccc(Br)n3)c3ccccc3c2=O)cc1 [Example 148]
24 | 500 to 20000 | CNCc1cccc(Cn2cc(C(=O)c3ccc(C)c(C)c3)c(=O)c3ccccc32)n1 [Example 117]
25 | 500 to 20000 | Nc1ccc(C(=O)c2cn(Cc3cccc(Br)n3)c3ccccc3c2=O)cn1 [Example 223]

More lines, now with the values behind:

Row | SMILES | IC50 [nM]
26 | COc1ccc(C(=O)c2cn(Cc3cccc(C(F)(F)F)n3)c3ccccc3c2=O)cc1C [Example 202] | < 100
27 | Cc1ccc(C(=O)c2cn(Cc3cccc(Br)n3)c3cc(F)ccc3c2=O)cc1C [Example 59] | < 100
28 | Cc1ccc(C(=O)c2cn(Cc3cccc(Br)n3)c3c(C)ccnc3c2=O)cc1C [Example 116] | 500 to 20000
29 | Cc1ccc(C(=O)c2cn(Cc3c(C)cccc3C)c3ccccc3c2=O)cc1C [Example 58] | 500 to 20000
30 | N#Cc1cccc(Cn2cc(C(=O)c3ccc4c(c3)OCCO4)c(=O)c3ccccc32)n1 [Example 228] | < 100
31 | COc1ccc(C(=O)c2cn(Cc3cccc(Br)n3)c3ccc(C)nc3c2=O)cc1F [Example 237] | 500 to 20000
32 | COc1ccc(C(=O)c2cn(Cc3cccc(Br)n3)c3ccccc3c2=O)nc1C [Example 242] | < 100
33 | Cc1ccc(C(=O)c2cn(C(C)c3cccc(Br)n3)c3ccccc3c2=O)nc1C (stereo not drawn) [Example 76] | < 100
34 | Cc1ccc(C(=O)c2cn(Cc3ccccn3)c3cc4c(cc3c2=O)OCCO4)cc1C [Example 11] | 500 to 20000
35 | CCc1ccc(C(=O)c2cn(Cc3cccc(C)n3)c3ccccc3c2=O)cn1 [Example 212] | < 100
36 | Cc1ccc(C(=O)c2cn(Cc3cccc(NS(C)(=O)=O)n3)c3ccccc3c2=O)cc1C [Example 60] | 100 to 500
37 | COc1ccc(C(=O)c2cn(Cc3cccc(Br)n3)c3ccccc3c2=O)cn1 [Example 189] | < 100
38 | O=C(c1ccc(N2CCCC2)nc1)c1cn(Cc2cccc(Br)n2)c2ccccc2c1=O [Example 241] | 100 to 500
39 | Cc1ccc(C(=O)c2cn(Cc3ccccc3F)c3ccc(C(F)(F)F)cc3c2=O)cc1C [Example 14] | 500 to 20000
40 | COc1ccc(C(=O)c2cn(Cc3cccc(C(F)(F)F)n3)c3ncccc3c2=O)cc1C [Example 195] | < 100
41 | COc1ccc(C(=O)c2cn(Cc3cccc(C)n3)c3ccccc3c2=O)cc1F [Example 183] | < 100
42 | CSc1cccc(Cn2cc(C(=O)c3ccc(C)c(C)c3)c(=O)c3ccccc32)n1 [Example 77] | < 100
43 | Cc1cccc(Cn2cc(C(=O)c3ccc(C)c(C)c3)c(=O)c3cnccc32)c1 [Example 47] | 100 to 500

Row | SMILES | IC50 [nM]
44 | O=C(c1cccc(C(F)(F)F)n1)c1cn(Cc2cccc(Br)n2)c2ccccc2c1=O [Example 139] | 500 to 20000
45 | Cc1ccc(C(=O)c2cn(Cc3cccc(C(N)=O)n3)c3ccccc3c2=O)cc1C [Example 86] | 500 to 20000
46 | CNc1cccc(Cn2cc(C(=O)c3cnc(C)c(C)c3)c(=O)c3ccccc32)n1 [Example 99] | 100 to 500
47 | O=C(c1ccc2c(c1)OCCO2)c1cn(Cc2cccc(Br)c2)c2ccccc2c1=O [Example 231] | < 100
48 | Cc1ccc(C(=O)c2cn(Cc3ccccc3F)c3ccccc3c2=O)nc1C [Example 49] | < 100
49 | CN(C)Cc1ccccc1C(=O)c1cn(Cc2cccc(Br)n2)c2ccccc2c1=O [Example 129] | < 100
50 | Cc1ccc(C(=O)c2cn(Cc3nnsc3Cl)c3ccccc3c2=O)cc1C [Example 28, 1-(5-Chloro-[1,2,3]thiadiazol-4-ylmethyl)-3-(3,4-dimethyl-benzoyl)-1H-quinolin-4-one] | < 100
51 | O=C(c1ccc2c(c1)CCO2)c1cn(Cc2cccc(Br)n2)c2ccccc2c1=O [Example 131] | < 100
52 | COc1ccc(C(=O)c2cn(Cc3cccc(Br)n3)c3ccccc3c2=O)cc1 [Example 144] | < 100
53 | Cc1ccc2c(=O)c(C(=O)c3ccc(C)c(C)c3)cn(Cc3cccc(Br)n3)c2n1 [Example 106] | < 100
54 | O=C(c1ccccc1-c1cnco1)c1cn(Cc2cccc(Br)n2)c2ccccc2c1=O [Example 167] | 500 to 20000
55 | O=C(c1ccc(Cl)nc1)c1cn(Cc2cccc(Cl)c2)c2ccccc2c1=O [Example 236] | 500 to 20000
56 | Cc1cccc(Cn2cc(C(=O)c3cnc(C)c(C)c3)c(=O)c3ccccc32)n1 [Example 50] | < 100
57 | O=C(c1ccc2c(c1)OCCO2)c1cn(Cc2cccc(Cl)c2)c2ccccc2c1=O [Example 233] | < 100
58 | COc1ccc(C(=O)c2cn(Cc3cccc(Br)n3)c3ncccc3c2=O)cc1C [Example 160] | < 100
59 | Cc1cc(C(=O)c2cn(Cc3cccc(NC4CC4)n3)c3ccccc3c2=O)cnc1C [Example 110] | 500 to 20000
60 | O=C(c1ccccc1C1OCCCO1)c1cn(Cc2cccc(Br)n2)c2ccccc2c1=O [Example 126] | < 100
